System: adult patients with uncontrolled gout
Test: Health Assessment Questionnaire (HAQ-DI, HAQ pain, HAQ health), open-label study
Format: in vivo, human
Design: key to HAQ-Health, Observed, Median / HAQ-Health, Change from Baseline, Median: 0-100 scale; 0 = very well, 100 = very poor health; key to HAQ-DI, Observed, Median / HAQ-DI, Change from Baseline, Median: HAQ-DI scale 0-3; 0 = no difficulty, 3 = unable to do
Conditions: mITT Population
Procedure: Quality-of-Life Assessment: The HAQ was administered at the Screening and Week −4 or week −6 (prior to the first dose of MTX) Visits during the MTX Run-in Period for the open-label and randomized studies, respectively; prior to pegloticase infusion at the Day 1 and Weeks 14, 24 and 36 Visits or at the Day 1 and weeks 6, 14, 20, 24, 30, 36, and 44 visits during the Pegloticase+IMM Period for the open-label and randomized studies, respectively; at the End of Pegloticase Infusions Visit (if applicable), the Week 52/End of Study/Early Termination Visit and the Post Treatment Periods 3 and 6 Month Follow-up Visits (open-label study). The HAQ-DI is a self-report functional status instrument that can be filled out by a subject in less than 5 minutes and requires 1 minute to score. The index measures disability over the past week by asking a total of 20 questions covering 8 domains of function: dressing and grooming, arising, eating, walking, hygiene, reach, grip, and usual activities. There are at least 2 questions in each domain and the 8 domains represent a comprehensive set of functional activities. The HAQ-DI is calculated by scoring the answer to each question in the HAQ from 0 to 3, with 0 representing the ability to do without any difficulty, and 3 representing inability to do. Any activity that requires assistance from another individual or requires the use of an assistive device raises a 0 or 1 score to a 2. The highest score for each of the 8 domains is summed (range from 0 to 24) and divided by 8 to yield, on a scale with 25 possible values, a Functional Disability Index with a range from 0 to 3. The disability index is based on the number of domains answered and is computed only if the subject completes answers to at least 6 domains. The HAQ pain scale asks subjects to record how much pain they have had in the past week on a scale of 0 to 100, where zero represents “no pain” and 100 represents “severe pain”. The HAQ health scale is a measure of overall health. Subjects are asked to rate how well they are doing on a score of 0 to 100, where zero represents “very well” and 100 represents “very poor” health.

[1] = Week 52/ET, Methotrexate Baseline
[2] = Week 52/ET, Pegloticase Baseline

For pegloticase, the “HAQ-Health, Observed, Mean (SD)” value (Week 14, Pegloticase Baseline) was 36.6 (33.87), the “HAQ-Health, Observed, Median” value (Week 14, Pegloticase Baseline) was 16.5 and the “HAQ-Pain, Change from Baseline, Mean (SD)” value (“HAQ-Pain, Change … (SD)” for short) (Week 14, Pegloticase Baseline) was −16.0 (30.65). For the same substance, the “HAQ-Pain, Change from Baseline, Median” value (Week 14, Pegloticase Baseline) was −12.5, the “HAQ-Pain, Observed, Mean (SD)” value (Week 14, Pegloticase Baseline) was 27.1 (26.25) and the “HAQ-Pain, Observed, Median” value (Week 14, Pegloticase Baseline) was 15.0. For the same substance, the “HAQ-DI, Change from Baseline, Mean (SD)” value (Week 24, Methotrexate Baseline) was −0.5 (0.74), the “HAQ-DI, Change from Baseline, Median” value (Week 24, Methotrexate Baseline) was −0.1 and the “HAQ-DI, Observed, Mean (SD)” value (Week 24, Methotrexate Baseline) was 0.2 (0.33). The “HAQ-DI, Observed, Median” value (Week 24, Methotrexate Baseline) was 0.1, the “HAQ-Health, Change from Baseline, Mean (SD)” value (“HAQ-Health, Change … (SD)” below) (Week 24, Methotrexate Baseline) was −33.2 (36.01) and the “HAQ-Health, Change from Baseline, Median” value (Week 24, Methotrexate Baseline) was −40.0. For the same substance, the “HAQ-Health, Observed, Mean (SD)” value (Week 24, Methotrexate Baseline) was 21.4 (26.65), the “HAQ-Health, Observed, Median” value (Week 24, Methotrexate Baseline) was 10.0 and the “HAQ-Pain, Change … (SD)” value (Week 24, Methotrexate Baseline) was −19.2 (35.13). The “HAQ-Pain, Change from Baseline, Median” value (Week 24, Methotrexate Baseline) was −10.0, the “HAQ-Pain, Observed, Mean (SD)” value (Week 24, Methotrexate Baseline) was 25.4 (27.50) and the “HAQ-Pain, Observed, Median” value (Week 24, Methotrexate Baseline) was 20.0. The “HAQ-DI, Change from Baseline, Mean (SD)” value (Week 24, Pegloticase Baseline) was −0.6 (0.85), the “HAQ-DI, Change from Baseline, Median” value (Week 24, Pegloticase Baseline) was −0.1 and the “HAQ-DI, Observed, Mean (SD)” value (Week 24, Pegloticase Baseline) was 0.2 (0.33). The “HAQ-DI, Observed, Median” value (Week 24, Pegloticase Baseline) was 0.1, the “HAQ-Health, Change … (SD)” value (Week 24, Pegloticase Baseline) was −19.7 (43.38) and the “HAQ-Health, Change from Baseline, Median” value (Week 24, Pegloticase Baseline) was −10.0. For the same substance, the “HAQ-Health, Observed, Mean (SD)” value (Week 24, Pegloticase Baseline) was 21.4 (26.65), the “HAQ-Health, Observed, Median” value (Week 24, Pegloticase Baseline) was 10.0 and the “HAQ-Pain, Change … (SD)” value (Week 24, Pegloticase Baseline) was −16.7 (38.53). The “HAQ-Pain, Change from Baseline, Median” value (Week 24, Pegloticase Baseline) was −10.0, the “HAQ-Pain, Observed, Mean (SD)” value (Week 24, Pegloticase Baseline) was 25.4 (27.50) and the “HAQ-Pain, Observed, Median” value (Week 24, Pegloticase Baseline) was 20.0. The “HAQ-DI, Change from Baseline, Mean (SD)” value (Week 36, Methotrexate Baseline) was −0.5 (0.80), the “HAQ-DI, Change from Baseline, Median” value (Week 36, Methotrexate Baseline) was 0.0 and the “HAQ-DI, Observed, Mean (SD)” value (Week 36, Methotrexate Baseline) was 0.3 (0.49). For the same substance, the “HAQ-DI, Observed, Median” value (Week 36, Methotrexate Baseline) was 0.1, the “HAQ-Health, Change … (SD)” value (Week 36, Methotrexate Baseline) was −27.7 (42.59) and the “HAQ-Health, Change from Baseline, Median” value (Week 36, Methotrexate Baseline) was −10.0. For the same substance, the “HAQ-Health, Observed, Mean (SD)” value (Week 36, Methotrexate Baseline) was 27.3 (35.18), the “HAQ-Health, Observed, Median” value (Week 36, Methotrexate Baseline) was 10.0 and the “HAQ-Pain, Change … (SD)” value (Week 36, Methotrexate Baseline) was −22.9 (28.41). The “HAQ-Pain, Change from Baseline, Median” value (Week 36, Methotrexate Baseline) was −20.0, the “HAQ-Pain, Observed, Mean (SD)” value (Week 36, Methotrexate Baseline) was 21.0 (27.60) and the “HAQ-Pain, Observed, Median” value (Week 36, Methotrexate Baseline) was 10.0. The “HAQ-DI, Change from Baseline, Mean (SD)” value (Week 36, Pegloticase Baseline) was −0.5 (0.86), the “HAQ-DI, Change from Baseline, Median” value (Week 36, Pegloticase Baseline) was −0.1 and the “HAQ-DI, Observed, Mean (SD)” value (Week 36, Pegloticase Baseline) was 0.3 (0.49). The “HAQ-DI, Observed, Median” value (Week 36, Pegloticase Baseline) was 0.1, the “HAQ-Health, Change … (SD)” value (Week 36, Pegloticase Baseline) was −16.2 (50.72) and the “HAQ-Health, Change from Baseline, Median” value (Week 36, Pegloticase Baseline) was −10.0. For the same substance, the “HAQ-Health, Observed, Mean (SD)” value (Week 36, Pegloticase Baseline) was 27.3 (35.18), the “HAQ-Health, Observed, Median” value (Week 36, Pegloticase Baseline) was 10.0 and the “HAQ-Pain, Change … (SD)” value (Week 36, Pegloticase Baseline) was −19.9 (20.25). For the same substance, the “HAQ-Pain, Change from Baseline, Median” value (Week 36, Pegloticase Baseline) was −20.0, the “HAQ-Pain, Observed, Mean (SD)” value (Week 36, Pegloticase Baseline) was 21.0 (27.60) and the “HAQ-Pain, Observed, Median” value (Week 36, Pegloticase Baseline) was 10.0. The “HAQ-DI, Change from Baseline, Mean (SD)” value [1] was −0.6 (0.87), the “HAQ-DI, Change from Baseline, Median” value [1] was −0.1 and the “HAQ-DI, Observed, Mean (SD)” value [1] was 0.4 (0.29). For the same substance, the “HAQ-DI, Observed, Median” value [1] was 0.3, the “HAQ-Health, Change … (SD)” value [1] was −16.7 (59.23) and the “HAQ-Health, Change from Baseline, Median” value [1] was 15.0. The “HAQ-Health, Observed, Mean (SD)” value [1] was 60.0 (48.22), the “HAQ-Health, Observed, Median” value [1] was 80.0 and the “HAQ-Pain, Change … (SD)” value [1] was −42.7 (18.04). The “HAQ-Pain, Change from Baseline, Median” value [1] was −44.0, the “HAQ-Pain, Observed, Mean (SD)” value [1] was 4.0 (5.20) and the “HAQ-Pain, Observed, Median” value [1] was 1.0. The “HAQ-DI, Change from Baseline, Mean (SD)” value [2] was −0.8 (1.08), the “HAQ-DI, Change from Baseline, Median” value [2] was −0.1 and the “HAQ-DI, Observed, Mean (SD)” value [2] was 0.4 (0.29). The “HAQ-DI, Observed, Median” value [2] was 0.3, the “HAQ-Health, Change … (SD)” value [2] was 23.3 (54.85) and the “HAQ-Health, Change from Baseline, Median” value [2] was 5.0. For the same substance, the “HAQ-Health, Observed, Mean (SD)” value [2] was 60.0 (48.22), the “HAQ-Health, Observed, Median” value [2] was 80.0 and the “HAQ-Pain, Change … (SD)” value [2] was −41.0 (25.24). For the same substance, the “HAQ-Pain, Change from Baseline, Median” value [2] was −29.0, the “HAQ-Pain, Observed, Mean (SD)” value [2] was 4.0 (5.20) and the “HAQ-Pain, Observed, Median” value [2] was 1.0.

Source: US20220409620A1, “REDUCING IMMUNOGENICITY TO PEGLOTICASE” (Horizon Pharma Rheumatology LLC, priority 2016, published 2022)
